{"source": "paper PMC10049079", "about": "“Simulated Microgravity Alters P-Glycoprotein Efflux Function and Expression via the Wnt/β-Catenin Signaling Pathway in Rat Intestine and Brain” (International Journal of Molecular Sciences, 2023)", "key": {"rat ileum": {"test_system": "rat ileum", "assay": "Rat single-pass intestinal perfusion (SPIP) of acetaminophen", "assay_type": "in vivo", "conditions": "for Ka / Peff / Concentration: SPIP of ileum; for Concentration: perfusate 2.5 mg/mL AP", "protocol": "At 1 h post-oral administration, all rats were anesthetized with urethane (1.75 g/kg) and placed in a supine position. Approximately 10 cm of ileum was separated from the intestinal segments. Tubes were carefully inserted at both ends of this segment and ligated with a sterile surgical line. The segment was rinsed with 37 °C Krebs–Ringer’s (KR) solution, balanced with KR solution (containing 2.5 mg/mL AP) at a flow rate of 0.2 mL/min for 15 min, and continuously perfused with KR solution (containing 2.5 mg/mL AP). The flow rate was set as 0.2 mL/min. The outflow perfusate was collected in a pre-weighed tube, which was changed quickly every 15 min and weighed. Six tubes of this fluid were collected for each rat. The perfusion solution and outflow perfusate were diluted in methanol–water (1:9, v:v) and analyzed using HPLC.\n(§1) HPLC was performed on a Shimadzu LC-20AT HPLC system equipped with a UV detector (Shimadzu, Kyoto, Japan). Sample separation was conducted in a C18 column (5 μm, 4.6 × 150 mm). The mobile phases were methanol (A) and water (B) (1:9, v:v), and the flow rate was 1 mL/min. The volume of each sample injected into the HPLC system was 10 μL. The column temperature was maintained at 25 °C, and the detection wavelength was 275 nm. Ferulic acid (final concentration of 100 μg/mL) was used as an IS."}, "[1]": {"assay": "Rat brain distribution of acetaminophen (Kp brain)", "assay_type": "in vivo", "conditions": "AP 1.2 g/kg oral, post-oral administration", "protocol": "After 7 or 21 days of tail suspension, all rats were orally administered AP (1.2 g/kg). […] Rat brains were rapidly removed after perfusion with prechilled saline from rat hearts. Then, 0.1 mL of plasma from each rat was used to precipitate proteins with 300 μL of methanol. Approximately 0.1 g of the brain tissue of each rat was homogenized and ultrasonicated in 1 mL of methanol. The supernatant was removed and dried via vacuum centrifugation and reconstituted with methanol for HPLC. The brain distribution of AP was evaluated as the ratio of AP content in brain tissue (μg/g) to that in plasma (μg/mL).\nas §1"}, "[2]": {"parameters": "method as in earlier work", "conditions": "21 and 28 days of SMG treatment in rats; cited from earlier work"}, "[3]": {"conditions": "cited from earlier work"}, "[4]": {"test_system": "Wnt/β-catenin signaling pathway", "assay": "Western-Blot of Wnt/β-catenin pathway proteins and P-gp in Caco-2 cells treated with FzM1.8", "assay_type": "cell-based, human", "protocol": "Caco-2 cells were purchased from the Chinese Academy of Sciences (Shanghai, China) and maintained in MEM/EBSS medium (Hyclone, UT, USA) supplemented with 10% fetal bovine serum (Sofar, Beijing, China), 1% penicillin–streptomycin liquid (Solarbio, Beijing, China), and 1% nonessential amino acids (Gibco, New York, NY, USA) in a humidified 5% CO2 atmosphere at 37 °C. The Caco-2 cells were seeded in a T-12.5 flask (2 × 10^4 cells/cm^2) and cultured for 21 days under normal gravity. The T-12.5 flask was filled with culture medium while preventing bubble formation and then exposed to SMG using random speed 3D clinostat (National Space Science Center, Beijing, China) for 12, 24, 48, and 72 h. The Caco-2 cells in the CON group were cultured under normal gravity in the same CO2 incubator.\n(§2) FzM1.8 and IWP-O1 (Wnt/β-catenin signaling pathway-specific agonist and inhibitor, respectively) were dissolved in dimethyl sulfoxide (DMSO) and diluted with culture medium to obtain the desired concentrations. The final concentration of DMSO was 0.1%. FzM1.8 (2 μM) was added to the Caco-2 cells in the CON + FzM1.8 and SMG + FzM1.8 groups. IWP-O1 (1 nM) was added to the hCMEC/D3 cells in the CON + IWPO-1 and SMG + IWPO-1 groups. The cells in the SMG, SMG + FzM1.8, or SMG + IWPO-1 group were then exposed to SMG for 48 h.\n(§3) Total proteins in the rat ileum mucosa and brain and Caco-2 and hCMEC/D3 cells were extracted using radio immunoprecipitation assay buffer containing protease inhibitors and protein phosphatase inhibitors. The supernatant was collected after centrifugation (12,000× g, 4 °C, and 10 min). The protein concentration was tested using Coomassie brilliant blue staining. The supernatant was mixed with 4× protein loading buffer containing dithiothreitol (Solarbio, Beijing, China) and […] in a boiling water bath for 10 min. […] The gray value of each band was collected using Image Lab^TM Software (version 3.0, Bio-Rad, Hercules, CA, USA), and the relative expression levels of proteins were expressed as the ratio of the gray value of the target band to the total proteins in the same lane."}, "[5]": {"test_system": "Wnt/β-catenin signaling pathway", "assay": "Western-Blot of Wnt/β-catenin pathway proteins and P-gp in hCMEC/D3 cells treated with IWP-O1", "assay_type": "cell-based, human", "protocol": "The hCMEC/D3 cells were purchased from iCell Bioscience Inc. (Shanghai, China) and cultured in RPMI 1640 medium containing 1% penicillin–streptomycin liquid (Solarbio, Beijing, China) and 10% fetal bovine serum (Tianhang, Zhejiang, China) in the same environment as that of Caco-2 cells. The hCMEC/D3 cells were seeded at a density of 6 × 10^4 cells/cm^2 and cultured for 2 days under normal gravity. The flasks were then filled with culture medium and exposed to SMG using random speed 3D clinostat for 24, 48, and 72 h. The hCMEC/D3 cells in the CON group were cultured under normal gravity in the same CO2 incubator.\nas §2, §3"}, "P-gp [6]": {"test_system": "P-gp", "assay": "Ratio of Rho123 concentration in rat brain and blood (P-gp efflux function in rat brain)", "assay_type": "in vivo", "conditions": "Rho123 0.5 mg/kg tail vein, 15 min post-injection", "protocol": "After 45 min, the tail veins of all rats were injected with Rho123 (0.5 mg/kg, Solarbio, Beijing, China). At 15 min post-injection, all rats were anesthetized with chloral hydrate (350 mg/kg), and the blood was collected from the heart. After being subjected to transcardiac perfusion using the stroke-physiological saline solution from the heart, the brain samples of all rats were collected. In summary, 0.1 g of brain samples were homogenized with 0.4 mL of normal saline to obtain brain homogenate. Blank plasma and brain samples were collected from rats without a Rho123 injection and used to prepare Rho123 standard curve samples. The concentration of Rho123 in plasma and brain homogenate from all rats was detected by fluorescence intensity (λ excitation/λ emission = 485/535) using a microplate reader (BioTek, Thorold, ON, Canada). The Kp brain of Rho123 was used to evaluate P-gp efflux function."}, "P-gp [7]": {"test_system": "P-gp", "assay": "Intracellular Rho123 fluorescence intensity in hCMEC/D3 cells (P-gp efflux function)", "assay_type": "cell-based, human", "conditions": "Rho123 2 μM for 0.5 h", "quoted_text": "The cells were then washed with phosphate buffer saline (PBS) solution five times (2 mL each time) and treated with 2 mL of 0.1% Triton X-100 for 15 min. The cell solution was transferred to a black 96-well plate (Corning, NY, USA) with six wells in each group and 200 μL in each well after brief centrifugation. The fluorescence intensity of each well was detected using a microplate reader (BioTek, Thorold, ON, Canada). The excitation/emission wavelength of Rho123 was 485/535 nm. After 24, 48, or 72 h of SMG treatment, the hCMEC/D3 cells were treated with 2 mL of medium containing Rho123 (2 μM) for 0.5 h. Subsequent operations were performed in the same way as for Caco-2 cells."}, "[8]": {"conditions": "7 days CON + Ver (30 mg/kg oral) rats"}, "[9]": {"conditions": "21 days CON + Ver (30 mg/kg oral) rats"}}, "note": "Like-named read-outs stand apart in the source and are kept apart here.", "data": [{"smiles": "CC(=O)Nc1ccc(O)cc1", "note": "[AP, acetaminophen]", "values": [{"measurement": "Ka", "setting": "rat ileum; [8]", "value": "8.93 ± 0.37 * 10^−2 min^−1"}, {"measurement": "Peff", "setting": "rat ileum; [8]", "value": "10.77 ± 0.61 * 10^−3 cm/min"}, {"measurement": "Concentration", "setting": "rat ileum; [8]", "value": "1.516 ± 0.052", "unit": "mg/mL"}, {"measurement": "Ka", "setting": "rat ileum; 7 days CON rats", "value": "7.75 ± 0.11 10^−2 min^−1"}, {"measurement": "Peff", "setting": "rat ileum; 7 days CON rats", "value": "8.86 ± 0.16 10^−3 cm/min"}, {"measurement": "Concentration", "setting": "rat ileum; 7 days CON rats", "value": "1.684 ± 0.015", "unit": "mg/mL"}, {"measurement": "Ka", "setting": "rat ileum; 7 days SMG rats", "value": "8.55 ± 0.21 ** 10^−2 min^−1"}, {"measurement": "Peff", "setting": "rat ileum; 7 days SMG rats", "value": "10.11 ± 0.33 ** 10^−3 cm/min"}, {"measurement": "Concentration", "setting": "rat ileum; 7 days SMG rats", "value": "1.571 ± 0.029", "unit": "mg/mL"}, {"measurement": "Increase of Ka in rat ileum", "setting": "rat ileum; 7 days SMG vs CON", "value": 10.3, "unit": "%"}, {"measurement": "Increase of Peff in rat ileum", "setting": "rat ileum; 7 days SMG vs CON", "value": 14.1, "unit": "%"}, {"measurement": "Ka", "setting": "rat ileum; [9]", "value": "7.44 ± 0.18 ** 10^−2 min^−1"}, {"measurement": "Peff", "setting": "rat ileum; [9]", "value": "8.41 ± 0.25 ** 10^−3 cm/min"}, {"measurement": "Concentration", "setting": "rat ileum; [9]", "value": "1.727 ± 0.025", "unit": "mg/mL"}, {"measurement": "Ka", "setting": "rat ileum; 21 days CON rats", "value": "5.66 ± 0.19 10^−2 min^−1"}, {"measurement": "Peff", "setting": "rat ileum; 21 days CON rats", "value": "6.01 ± 0.23 10^−3 cm/min"}, {"measurement": "Concentration", "setting": "rat ileum; 21 days CON rats", "value": "1.965 ± 0.033", "unit": "mg/mL"}, {"measurement": "Ka", "setting": "rat ileum; 21 days SMG rats", "value": "8.76 ± 0.47 ** 10^−2 min^−1"}, {"measurement": "Peff", "setting": "rat ileum; 21 days SMG rats", "value": "10.47 ± 0.76 ** 10^−3 cm/min"}, {"measurement": "Concentration", "setting": "rat ileum; 21 days SMG rats", "value": "1.54 ± 0.066", "unit": "mg/mL"}, {"measurement": "Increase of Ka in rat ileum", "setting": "rat ileum; 21 days SMG vs CON", "value": 54.8, "unit": "%"}, {"measurement": "Increase of Peff in rat ileum", "setting": "rat ileum; 21 days SMG vs CON", "value": 74.2, "unit": "%"}, {"measurement": "Increase of brain-to-plasma concentration ratio (Kp brain)", "setting": "[1]; 7 days SMG vs CON", "value": "approximately 22.0%"}, {"measurement": "Increase of brain-to-plasma concentration ratio (Kp brain)", "setting": "[1]; 21 days SMG vs CON", "value": 40.7, "unit": "%"}, {"measurement": "Absorption under SMG", "setting": "[2]", "value": "promoted"}, {"measurement": "Absorption under SMG", "setting": "[3]; 80 days of SMG treatment in humans", "value": "promoted"}, {"measurement": "Absorption in astronauts", "setting": "[3]; two astronauts, mission day 2 compared with before the flight", "value": "increased"}]}, {"smiles": "O=C(Nc1cc(O)cc(C(=O)O)c1)Nc1ccc2ccccc2c1", "note": "[FzM1.8]", "values": [{"measurement": "P-gp expression under SMG (Western-Blot)", "setting": "[4]; 2 μM before 48 h SMG, vs SMG group", "value": "up-regulate"}, {"measurement": "P-gp expression (Western-Blot)", "setting": "[4]; 2 μM, 48 h, vs CON group", "value": "increased"}, {"measurement": "Wnt/β-catenin signaling pathway (Western-Blot)", "setting": "[4]; 2 μM, 48 h, vs CON group", "value": "activated"}]}, {"smiles": "O=C(Cn1nnc(-c2ccncc2)c1-c1ccccc1)Nc1ccc(-c2ccccc2)cn1", "note": "[IWP-O1]", "values": [{"measurement": "P-gp expression under SMG (Western-Blot)", "setting": "[5]; 1 nM before 48 h SMG, vs SMG group", "value": "down-regulate"}, {"measurement": "P-gp expression (Western-Blot)", "setting": "[5]; 1 nM, 48 h, vs CON group", "value": "decreased"}, {"measurement": "Wnt/β-catenin signaling pathway (Western-Blot)", "setting": "[5]; 1 nM, 48 h, vs CON group", "value": "inhibited"}]}, {"smiles": "COC(=O)c1ccccc1-c1c2ccc(=N)cc-2oc2cc(N)ccc12", "note": "[Rho123, rhodamine 123]", "values": [{"measurement": "Increase of ratio of Rho123 concentration in rat brain to that in the blood", "setting": "P-gp [6]; 7 days SMG vs CON", "value": 40.5, "unit": "%"}, {"measurement": "Increase of ratio of Rho123 concentration in rat brain to that in the blood", "setting": "P-gp [6]; 21 days SMG vs CON", "value": 173.8, "unit": "%"}, {"measurement": "Increase in fluorescence intensity of intracellular Rho123", "setting": "P-gp [7]; 48 h SMG vs CON", "value": 13.4, "unit": "%"}, {"measurement": "Increase in fluorescence intensity of intracellular Rho123", "setting": "P-gp [7]; 72 h SMG vs CON", "value": 16.7, "unit": "%"}]}, {"smiles": "CC(C)Cc1ccc(C(C)C(=O)O)cc1", "note": "(stereo not drawn) [ibuprofen]", "values": [{"measurement": "Absorption in humans under SMG", "setting": "[3]; in vivo, po", "value": "promoted"}]}, {"smiles": "CC(CN1c2ccccc2Sc2ccccc21)N(C)C", "note": "(stereo not drawn) [promethazine]", "values": [{"measurement": "Absorption in humans under SMG", "setting": "[3]; oral P-gp substrate drugs, humans under SMG", "value": "promoted"}]}]}
